Data from US8129137B2, “Two-photon probe for real-time monitoring of intracellular free zinc ions, method for preparing the probe and method for real-time monitoring of intracellular free zinc ions using the probe” (Korea University Industrial & Academic Collaboration …, priority 2008, dated 2012).

How the values were obtained:
[1] = Fluorescence quantum yield (Coumarin 307 as reference); type: physicochemical
Protocol: The absorption spectra of the two-photon probes were recorded on a Hewlett-Packard 8453 diode array spectrophotometer, and the fluorescence spectra of the two-photon probes were obtained with an Amico-Bowman series 2 luminescence spectrometer with a 1 cm standard quartz cell. The fluorescence quantum yields of the two-photon probes were determined by using Coumarin 307 as the reference by the literature method (J. N. Demas, G. A. Crosby, J. Phys. Chem. 1971, 75, 991-1024.). FIGS. 2a and 2b are one-photon absorption and emission spectra of the two-photon probe AZn1, respectively, and FIGS. 2c and 2d are one-photon absorption and emission spectra of the two-photon probe AZn2, respectively.

[2] = system: rat hippocampal slice; experiment: Monitoring of Zn2+ in rat hippocampal slice by TPM
Protocol: In this experimental example, TPM images were obtained from a part of acute rat hippocampal slice incubated with 10 μM AZn2 for 30 min at 37° C. Because the slice of a 14-day old rat was too big to show with one image, several TPM images were obtained in the same plane at ˜120 μm depth and combined. […]
The negligible TPEF (c) after addition of TPEN, which effectively remove the [Zn^2+]i, provides a supporting evidence for this observation.
When 50 mM KCl, a membrane depolarizer causing the release of Zn^2+, was added to the imaging solution, the TPEF intensity increased, and then decreased upon treatment with TPEN. Similar results can also be found in (d)-(f) of FIG. 15.

[3] = system: 293 cells; experiment: Two-photon microscopy of probe-labeled 293 cells; type: cell-based; conditions: for TPEF of labeled cells collected at 360-460 nm / TPEF of labeled cells collected at 500-620 nm: 2 μM probe, excitation 780 nm
Protocol: 293 cells were incubated in DMEM (WelGene) supplemented with 10% FBS (WelGene), penicillin (100 unit/ml) and streptomycin (100 μg/ml).
Two days before imaging, the cells were transferred to glass-bottomed dishes (MatTek) and plated thereon. For labeling, the growth medium was replaced with FBS-free DMEM. The cells were incubated under 5% CO2, 37° C., using a 2 μM sensor for 30 minutes, washed three times with phosphate-buffered saline (PBS; Gibco), and further incubated in a colorless serum-free medium. Meanwhile, primary cortical cultures were taken from cerebral cortices of 1-day-old rats (Sprague-Dawley (SD)). The cerebral cortices were dissociated in Hank's balanced salt solution (HBSS; Gibco BRL, Gaithersburg, Md., USA) containing 1 U/ml papain (Worthington Biochemical Corporation, NJ, USA), plated at a density of 100 to 200 cells/mm^2 on poly-D-lysine and laminin-coated glass cover slips, and maintained in Neurobasal media (Gibco) supplemented with 2% B-27 (Gibco) and penicillin/streptomycin in a CO2 incubator at 37° C. After […] 7-15 days, the cortical cultures were washed three times with PBS and incubated in the presence of AZn2 (2 μM) in PBS at 37° C. for 30 minutes.
Two-photon fluorescence microscopy images of cells and tissue labeled with AZn2 were obtained with spectral confocal and multiphoton microscopes (Leica TCS SP2) with a ×100 oil objective and numerical aperture (NA)=1.30. The two-photon fluorescence microscopy images were obtained by exciting the two-photon probe with a mode-locked titanium-sapphire laser source (Coherent Chameleon, 90 MHz, 200 fs) set at wavelength of 780 nm and an output power of 1,230 mW, which corresponded to approximately 10 mW average power in the focal plane. To obtain images at 360-460 nm and 500-620 nm range, internal PMTs were used to collect the signals in an 8 bit unsigned 512×512 pixels at 400 Hz scan speed.
Moreover, because the fluorescence intensities of the two-photon probes increase slightly at pH<4 (FIGS. 8a and 8b), there is a possibility that the probes in the acidic vesicles might partially contribute to the TPM images. To rule out such possibility, 293 cells and primary cortical cultures were co-stained with AZn2 and LysoTracker Red (LTR), a well known one-photon fluorescent probe for the acidic vesicles, and the images were co-localized.
More specifically, (a) and (f) are bright field images, (b) and (g) are pseudo colored images of the AZn2-labeled 293 cells collected at 360-460 nm, (c) and (h) are pseudo colored images of the AZn2-labeled 293 cells collected at 500-580 nm, (d) and (i) are OPM images of the LTR-labeled 293 cells collected at 600-650 nm, and (e) and (j) are co-localized images. The one-photon and two-photon excitations were performed at 543 nm and 780 nm, respectively, the scale bar is 30 μm, and the images shown are representative images from replicate experiments (n=5).
FIG. 13 is images of AZn1- and LTR (2 μM for each)-labeled 293 cells: (a)-(e) and (f)-(j) are images of the labeled cells before and after addition of 100 μM TPEN to the imaging solution, respectively. More specifically, (a) and (f) are bright field images; (b) and (g) are pseudo colored images of the AZn1-labeled 293 cells collected at 360-460 nm; (c) and (h) are pseudo colored images of the AZn1-labeled 293 cells collected at 500-580 nm; (d) and (i) are OPM images of the LTR-labeled 293 cells collected at 600-650 nm; and (e) and (j) are co-localized images. […]

[4] = system: 293 cells; experiment: TPEF monitoring of labeled 293 cells after SNOC and TPEN; type: cell-based; conditions: 10 mM SNOC, 0.1 mM TPEN, compared with AZn2
Protocol: Referring to FIG. 14, the TPEF intensity increased gradually with time and then decreased abruptly upon addition of 0.1 mM TPEN, a membrane permeable Zn^2+chelator that can effectively remove Zn^2+.

[5] = 20 mM MOPS, 100 mM KCl, 10 mM EGTA, pH 7.2, absence of Zn2+, ±10%
[6] = 20 mM MOPS, 100 mM KCl, 10 mM EGTA, pH 7.2, presence of Zn2+, ±10%

Row | SMILES | fluorescence quantum yield φ [1, 5] | fluorescence quantum yield φ [1, 6] | fluorescence quantum yield φ ([1]; 1,4-dioxane, ±15%) | fluorescence quantum yield φ ([1]; DMF, ±15%) | fluorescence quantum yield φ ([1]; Ethanol, ±15%) | fluorescence quantum yield φ ([1]; H2O, ±15%) | TPEF intensity after addition of KCl ([2]; 50 mM KCl, hilus of dentate gyrus) | TPEF after addition of TPEN ([2]; hilus of dentate gyrus, FIG. 17) | depth at which intracellular free Zn2+ is imaged in live tissue ([2]; rat hippocampal slice, 10 μM probe) | intracellular location of probe [3] | TPEF of labeled cells collected at 360-460 nm [3] | TPEF of labeled cells collected at 500-620 nm [3] | TPEF response after SNOC then TPEN [4]
1 | COc1cc(NC(=O)CN(C)c2ccc3cc(C(C)=O)ccc3c2)ccc1NCCN(Cc1ccccn1)Cc1ccccn1 [AZn2] | 0.012 | 0.65 | 0.094 | 0.037 | 0.039 | 0.012 | increased | clear reduction in TPEF | 80-150 μm | predominantly located in the cytosolic compartments | no TPEF | appreciable TPEF | –
2 | Nc1ccc(NCCN(Cc2ccccn2)Cc2ccccn2)cc1 [AZn1] | 0.022 | 0.47 | 0.19 | 0.055 | 0.057 | 0.022 | – | – | – | – | no TPEF | appreciable TPEF | the response was smaller
